Data published in patent US20070264191A1, “Materials and Methods Relating to the Treatment of Glioblastomas” (priority 2004, published 2007).
Peptide text beside a SMILES is read from it.

Columns and labels:
[1] = test system: SF767 glioma cells; experiment: Transfection with peptide/pNGVL-Luc complexes, luciferase activity, SF767; format: cell-based, human
Method: The formation and transfection of peptide/DNA complexes were carried out according to Patel et al. with slight modifications. […] […] […] The peptide was added dropwise to the DNA solution while vortexing gently (Stuart Scientific, UK). This mixture was allowed to incubate at room temperature (RT) for 30 min. After 30 min, the mixture was diluted to 4 μg/ml DNA with DMEM in the presence of 100 μM of chloroquine, and added to cells.
The human tumor cell lines, dGli36, SF767, U251, A549, HeLa, HepG2, and CNE2 were cultured in DMEM supplemented with 10% fetal bovine serum (FBS) (Hyclone Laboratories, Logan, Utah). For transfection, 3×10^5 cells were seeded into each well of a six-well plate (Nunc, Roskilde, Denmark). After culturing the cells overnight, the cells were washed twice with PBS. Freshly prepared peptide/DNA complexes were added into each well and incubated for 2 h at 37° C. For transfection performed in the presence of serum, FBS was added to a final concentration of 10% directly after addition of peptide/DNA complexes to each well. The reporter gene activity was assayed after 24 h or 48 h.
Cells were harvested from 6-well plates 24 h or 48 h following transfection, washed, resuspended in 120 μl of Tris-HCl (pH 7.8), and freeze-thawed three times. Cell debris was discarded following centrifugation at 14,000 g at 4° C. for 10 min. One hundred μl of the supernatant collected was used for assaying luciferase activity using the Auto-Lumat LB952 luminometer (EG&G Berthold, Bad Wildbad, Germany). Five microliter of the supernatant collected was used for the determination of protein concentration using the Bio-Rad protein assay dye reagent (Bio-Rad Laboratories, Hercules, USA) with the Ultrospec 3000 UV/visible spectrophotometer (Amersham Biosciences AB, Uppsala, Sweden).

[2] = test system: U87MG glioma cell line; details: Spear et al., 2001; cited from earlier work
[3] = test system: other glioma cells; details: Spear et al., 2001; cited from earlier work
[4] = test system: SF767, U251MG, and M059K human glioma cell lines; experiment: In vitro fluorescent peptide binding assay, glioma cell lines; details: lissamine-rhodamine conjugated peptide, 100 ng, 20 min, 37° C., FIG. 4
Method: (§1) For in vitro binding assay, 1×10^5 cells were seeded into each well of a 24-well dish (Nunc, Roskilde, Denmark). After culturing the cells overnight at 37° C., the cells were washed once with PBS, followed by incubating in blocking buffer containing PBS with 1% BSA at room temperature for 1 h. The cells were washed twice with PBS. One hundred nanogram of lissamine-rhodamine conjugated peptide (Mimotopes, Victoria, Australia) were added to the blocking buffer containing 0.1% sodium azide, and incubated with the cells at 37° C. for 20 min. This is followed by 5 washes of PBS with 0.1% Tween-20 at RT for 5 min intervals. The cells were then fix in 4% paraformaldehyde, followed by counterstaining using FITC-phalloidin (Sigma-Aldrich Corp., St. Louis, Mo.) and mounted. Images were captured digitally and analyzed using LSM 510 confocal microscope (Carl Zeiss Microscopy, Gottingen, Germany) with appropriate filters.
(§2) To determine the direct specific binding of the (K16)-MG11 peptide to cell surface of glioma cells, (K16)-MG11 peptide was conjugated to lissamine rhodamine. After incubating the conjugated (K16)-MG11 to the various tumor cell lines, SF767, U251MG, M059K, A549, HepG2, and HK1, for 20 minutes at 37° C., the cells were examined under confocal microscopy and the level of fluorescence detected were compared between glioma and non-glioma cells. […]

[5] = test system: non-glioma cell lines (A549, HepG2, HK1); experiment: In vitro fluorescent peptide binding assay, non-glioma cell lines; set-up: species or system human; details: lissamine-rhodamine conjugated peptide, 100 ng, 20 min, 37° C., FIG. 4
Method: as §1, §2

[6] = test system: SF767 glioma xenograft; experiment: In vivo fluorescent peptide binding assay, intratumoral injection; details: SCID mice, 100 μg lissamine-rhodamine conjugated peptide intratumorally, 20 min, FIG. 6
Method: SF767-tumor bearing mice were randomized into 2 groups (2 per group). Fifty microliter of 100 μg of lissamine rhodamine conjugated (K16)-MG11 or (K16)-H42 was injected intratumorally into 2 mice harboring the tumor, and allowed to circulate for 20 min. After 20 min, the mice were anethesized and perfused through the heart with PBS followed by 4% paraformaldehyde. The tumor were dissected and prepared for cryostat sections. The sections were then counterstained in FITC-phalloidin and mounted. Images were examined using LSM 510 meta confocal microscope (Carl Zeiss Microscopy, Göttingen, Germany) with appropriate filters.
After 20 min of circulation, the mouse bearing the SF767 glioma xenograft was perfused and tumor was harvested. The tumor sections were counterstained with FITC-labeled phalloidin, which stains F-actin, to determine the cell surface.

Which “toxicity to treated cells” value ([1]; peptide: DNA ratios of 10:1 and 20:1) does the source give for `CC[C@H](C)[C@H](NC(=O)[C@H](CO)NC(=O)[C@H](CCCCN)NC(=O)[C@H](CCCCN)NC(=O)[C@H](CCCCN)NC(=O)[C@H](CCCCN)NC(=O)[C@H](CCCCN)NC(=O)[C@H](CCCCN)NC(=O)[C@H](CCCCN)NC(=O)[C@H](CCCCN)NC(=O)[C@H](CCCCN)NC(=O)[C@H](CCCCN)NC(=O)[C@H](CCCCN)NC(=O)[C@H](CCCCN)NC(=O)[C@H](CCCCN)NC(=O)[C@H](CCCCN)NC(=O)[C@H](CCCCN)NC(=O)[C@@H](N)CCCCN)C(=O)N1CCC[C@H]1C(=O)N[C@H](C(=O)N[C@@H](CCCCN)C(=O)N[C@@H](Cc1ccccc1)C(=O)N[C@@H](CC(N)=O)C(=O)N[C@@H](CCCCN)C(=O)N1CCC[C@H]1C(=O)N[C@@H](CC(C)C)C(=O)N[C@@H](Cc1c[nH]c2ccccc12)C(=O)N[C@@H](C)C(=O)N[C@H](C(=O)N[C@@H](Cc1ccccc1)C(=O)N1CCC[C@H]1C(=O)N1CCC[C@H]1C(=O)N[C@@H](CCCNC(=N)N)C(=O)N1CCC[C@H]1C(=O)N1CCC[C@H]1C(=O)N[C@@H](Cc1c[nH]c2ccccc12)C(=O)N[C@@H](CC(C)C)C(=O)O)[C@@H](C)O)C(C)C` [(K16)-MG11, poly-L-lysine-SIPVKFNKP-MG11] (H-KKKKKKKKKKKKKKKKSIPVKFNKPLWATFPPRPPWL-OH) here?
Its value is “toxicity could be detected”.

Which binding specificity [2] does the source give for MCPKHPLGC here?
Its binding specificity is “specific for U87MG glioma cell line”.

What about the binding [3] of the same compound?
Its binding is “did not bind”.

Which luciferase expression ([1]; complex with pNGVL-Luc, chloroquine, 48 h post transfection, FIG. 3C) does the source give for poly-L-lysine-SIPVKFNKP-H42 [(K16)-H42] here?
The luciferase expression was 8444 RLU/μg.

What about the “luciferase expression at various peptide to DNA ratios” value ([1]; ratios 1:2, 2:1, 10:1, 20:1, 24 h post-transfection, FIG. 3A) of the same compound?
The value was “no significant binding could be detected”.

What about the “cell surface fluorescence (confocal microscopy)” value [4] of the same compound?
The value was “non-specific red fluorescence was observed in all cell lines”.

And the “cell surface fluorescence (confocal microscopy)” value [5]?
Its value is “non-specific red fluorescence was observed in all cell lines”.

What about the “red fluorescence in tumor cryostat sections” value [6] of the same compound?
Its value is “red fluorescent was not detected”.
